Entries after “also recorded” stand apart in the source; their conditions may differ.
Tests used:
HSP90 = assay: Western blot analysis of HSP90 expression in INA-6 cells; type: cell-based, human; details: INA-6, 0.6 μM, with Z-VAD-FMK 50 μM
Description: (§1) Western Blot Analysis. Protein expression levels were determined with Western blotting procedures (M. Chatterjee, et al., Blood 2002, 100, 3311-3318). Following separation by SDS-PAGE, proteins were transferred onto nitrocellulose membranes (Schleicher & Schuell, Dassel, Germany) and stained with antibodies against Hsp72, Hsp73, Hsp90 (all from Enzo Life Science, Lörrach, Germany), AIF, lamin A, caspases 9 and 3, PARP (all from Santa Cruz, Heidelberg, Germany). An anti-α tubulin antibody (Sigma, Deisenhofen, Germany) was employed to assess equal loading. Secondary antibodies used were anti-rat (Enzo Life Science), anti-rabbit and anti-mouse (both from GE Healthcare, Little Chalfont, UK). […] The heat shock proteins HSP72 and HSP73 critically interact with HSP90 in order to mediate an essential chaperone function for a multitude of proteins including various signaling intermediates. According to an established HSP72/73-dependent client protein signature and its role for survival in MM, the proposed anti-HSP72/73 effect of trans-7b in the INA-6 multiple myeloma (MM) cell line model was evaluated. […] Lysates were cleared by centrifugation, measured by quantitative protein assay (Bio-Rad, München, Germany) and subjected to SDS gel electrophoresis. […]

HSP72 = biological target: T1, HSP72 (Homo sapiens, UniProt P0DMV8); assay: Western blot analysis of HSP72 expression in INA-6 cells; type: cell-based; details: INA-6, 0.6 μM, with Z-VAD-FMK 50 μM
T1 construct: endogenous in cells; host or cells: INA-6 multiple myeloma cells
T1 sequence (P0DMV8 whole entry): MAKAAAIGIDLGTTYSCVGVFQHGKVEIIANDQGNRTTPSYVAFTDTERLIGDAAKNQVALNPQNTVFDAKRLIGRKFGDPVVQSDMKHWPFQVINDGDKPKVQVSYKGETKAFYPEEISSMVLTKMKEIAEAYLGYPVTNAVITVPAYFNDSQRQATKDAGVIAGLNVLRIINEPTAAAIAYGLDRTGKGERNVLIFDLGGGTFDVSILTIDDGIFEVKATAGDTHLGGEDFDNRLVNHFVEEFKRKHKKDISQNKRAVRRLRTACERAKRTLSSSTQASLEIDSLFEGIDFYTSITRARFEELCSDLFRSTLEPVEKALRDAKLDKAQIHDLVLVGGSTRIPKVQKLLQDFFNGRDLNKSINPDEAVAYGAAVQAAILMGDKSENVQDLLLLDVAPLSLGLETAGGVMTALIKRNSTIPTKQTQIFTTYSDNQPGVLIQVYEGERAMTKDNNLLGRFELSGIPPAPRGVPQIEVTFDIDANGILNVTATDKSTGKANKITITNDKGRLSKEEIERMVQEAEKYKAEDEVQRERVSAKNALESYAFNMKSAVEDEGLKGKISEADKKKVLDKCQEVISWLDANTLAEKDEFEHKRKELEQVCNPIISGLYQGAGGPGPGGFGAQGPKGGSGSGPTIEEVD
Description: as §1

[1] = system: peripheral blood mononuclear cells (PBMCs); assay: Cell viability assay in non-malignant peripheral blood mononuclear cells; type: cell-based, human; details: 72 hours
Description: The effect of pharmacological Hsp70 inhibition on cell viability was analyzed after 72 hours of treatment in both non-malignant (mononuclear cells from the peripheral blood) and malignant lymphocytes (multiple myeloma cells). The mononuclear cells were separated from the peripheral blood of healthy donors by Ficoll-Hypaque density gradient centrifugation. The human cell line INA-6 represents a well-established model for multiple myeloma. The percentage of viable and apoptotic cell fractions was assessed using an annexin V-FITC/propidium iodide (PI) staining kit (Bender MedSystems, Vienna, Austria) according to manufacturer's instructions. In brief, cells were washed in PBS, incubated for 10 min in 100 ml binding buffer (10 mM HEPES/NaOH, pH 7.4, 140 mM NaCl, 2.5 mM CaCl2) containing 2.5 ml annexin V-FITC mix and 1 mg/ml propidium iodide (PI), subsequently diluted with 100 ml binding buffer and analyzed by flow cytometry (FACSCalibur/CELLQuest; Becton Dickinson, Heidelberg, Germany). […] To establish kill curves, concentrations of the tested compounds were titrated, and the measured viable cell fractions were further analyzed using the Prism Calculation Software (GraphPad Software Inc., La Jolla, USA). […]

INA-6 = assay: Cell viability assay (annexin V-FITC/propidium iodide, flow cytometry) in INA-6 multiple myeloma cells; type: cell-based, human
Description: The effect of pharmacological Hsp70 inhibition on cell viability was analyzed after 72 hours of treatment in both non-malignant (mononuclear cells from the peripheral blood) and malignant lymphocytes (multiple myeloma cells). The mononuclear cells were separated from the peripheral blood of healthy donors by Ficoll-Hypaque density gradient centrifugation. The human cell line INA-6 represents a well-established model for multiple myeloma. The percentage of viable and apoptotic cell fractions was assessed using an annexin V-FITC/propidium iodide (PI) staining kit (Bender MedSystems, Vienna, Austria) according to manufacturer's instructions. In brief, cells were washed in PBS, incubated for 10 min in 100 ml binding buffer (10 mM HEPES/NaOH, pH 7.4, 140 mM NaCl, 2.5 mM CaCl2) containing 2.5 ml annexin V-FITC mix and 1 mg/ml propidium iodide (PI), subsequently diluted with 100 ml binding buffer and analyzed by flow cytometry (FACSCalibur/CELLQuest; Becton Dickinson, Heidelberg, Germany). Whereas viable cells are negative for both, annexin V-FITC and PI, early apoptotic cells show a positive annexin V-FITC staining, and cells in a late apoptotic stage which lose their membrane integrity additionally incorporate DNA-binding PI. To establish kill curves, concentrations of the tested compounds were titrated, and the measured viable cell fractions were further analyzed using the Prism Calculation Software (GraphPad Software Inc., La Jolla, USA).
In FIG. 2A Western blot analyses of caspases 9 and 3, and the caspase substrate PARP (upper panel), and viability analyses (lower panel) of INA-6 MM cells upon treatment with trans-7b for 24 hours are shown. INA-6 cells were either incubated with DMSO (as a solvent control) or with 0.6 μM of trans-7b, and additionally incubated either with DMSO or the pan-caspase inhibitor Z-VAD-FMK prior to analyses by Western or viability assessment (without Z-VAD-FMK co-treatment) by Annexin V/propidum iodide double staining. For Western analyses INA-6 cell pellets were dissolved in lysis buffer (20 mM HEPES (pH 7.9), 350 mM NaCl, 1 mM MgCl2, 0.5 mM EDTA, 0.1 mM EGTA, 1% NP40, 0.5 mM dithiothreiol (DTT), 1 mM Na3VO4, 0.1 mM PMSF and 1 μg/ml aprotinin). Lysates were cleared by centrifugation, measured by quantitative protein assay (Bio-Rad, München, Germany) and subjected to SDS gel electrophoresis. Proteins were transferred onto nitrocellulose membranes (Schleicher & Schuell, Dassel, Germany), incubated with antibodies specific for caspase 9, caspase 3 or PARP (Cell Signaling Technology, Frankfurt a.Main, Germany) according to standard procedures and visualized with secondary anti-rabbit horseradish peroxidase (HRP)-conjugated antibodies using an enhanced chemoluminescence detection system (ECL, Amersham, Freiburg, Germany). […] Annexin V/propidium iodide (PI) staining was performed using a fluorescein isothiocyanate (FITC) conjugated recombinant human annexin/propidium iodide kit (BenderMedSystems, Vienna, Austria) according to the manufacturer's instructions. INA-6 cells were washed in PBS, incubated for 15 minutes in 100 ml binding buffer (10 mM HEPES/NaOH, pH 7.4, 140 mM NaCl, 2.5 mM CaCl2) containing 2.5 mL annexin V-FITC mix and 1 mg/ml PI and analyzed by flow cytometry (FACSCalibur/CELLQuest; Becton Dickinson, Heidelberg, Germany). Whereas early apoptosis is characterized by positive annexin V-FITC staining reaction, cells in a late apoptotic stage lose their membrane integrity and additionally incorporate PI. Thus, the fraction of viable cells remains negative for both annexin V-FITC and PI. […] Based on the above described experiments also viability analyses of INA-6 in comparison with non-malignant PBMCs were performed choosing a longer incubation time (72 hours) as shown in FIG. 2B or C. Raw data of three independent experiments have been calculated to establish means, standard deviation and dose-effect curves of trans-7b.

## COc1ccc(C2C(C(=O)Nc3cccc(C)n3)c3ccccc3C(=O)N2c2ccccc2)cc1 (stereo not drawn) [trans-7b, trans-3-(4-Methoxyphenyl)-N-(6-methylpyridin-2-yl)-1-oxo-2-phenyl-1,2,3,4-tetrahydroisoquinoline-4-carboxamide]
HSP90
  HSP90 expression: remains unchanged
HSP72
  HSP72 constitutive expression level: decreases; also recorded: reduced
[1]
  cytotoxic effect in primary PBMCs (viability): lack any cytotoxic effect even in higher micromolar concentrations
INA-6; 0.6 μM, 24 hours, Annexin V/propidium iodide
  viability of INA-6 cells in comparison with the DMSO control (100%): drastically decreased
INA-6; 72 hours, three independent experiments
  sensitivity of INA-6 tumor cells (viability, dose-effect curves): highly sensitive (in a low micromolar range)
INA-6; Homo sapiens, INA-6, 72 h, INA-6 multiple myeloma cells, 72 hours of treatment, viable cell fraction, mean of at least three determinations, read-out: INA-6 EC50(±sdv)
  EC50: 410 nM
